Assay [1] deals with male mice (ICR). The assay can be described thus: Muscle relaxation: grip strength. Format: in vivo. Particulars: intraperitoneal; for ED50: Mus musculus, ip, at time of maximum effect, 50% of activity vs vehicle only, read-out: MR test ED50, III = Grip strength. As for the experimental part:
(§1) For testing, male mice (ICR) were purchased from ORIENT BIO INC. (Korea), divided into several groups with 6 mice in each group, and were adapted for 4-5 days. The mice having the weight ranging from 19 g to 26 g were employed for the test. The pharmacological effect of the test compounds on muscle relaxation was evaluated by Rotarod test, grip strength test, and muscular force (wire hang) test. All mice were adapted to the test environment at one hour before starting the tests. The pharmacological effects of all the test compounds were evaluated by administration through peritoneal cavity of the mice (10 ul/g, bw).
A grip strength test using the test animals' forelimbs was performed using an instrument equipped with triangle ring and designed so as to easily grip with the forelimbs of experimental animals, manufactured from Ugo Basile Inc. (Ugo Basile, Model47106, Italy). The test was conducted before and after administration of the compounds to evaluate the effects thereof. […] The mouse was made to grip the rod with its forelimbs, and its tail was pulled, where the force at which the mouse detached from the rod was recorded. The instrument indicated the force in grams. All of the mice were given […] for test, and the 3 highest values among the test opportunities were selected and the mean value was used as the test result. This experimentation was conducted according to the method described in the reference, ‘Nevins et al. (1993) Quantitative grip strength assessment as a means of evaluating muscle relaxation in mice. Psychopharmacol. 110: 92-96’.
(§2) The results of muscle relaxation activity of the phenyl carbamate compounds measured in above Experimental Examples 11.2 to 11.5 are shown in following Table 5.

The next assay has as its system male ICR mice. Kind of assay: MES (Maximal Electroshock Seizure) test in mice. The following applies: Mus musculus, po; for ED50: read-out: MES test (po) ED50; for responders at 200 mg/kg: read-out: MES test (po) Protection %.
For assay [2], the system named is male mice (ICR). Kind of assay: Muscle relaxation: endurance time on rotarod rotating at accelerated speed. Format: in vivo. Particulars: Mus musculus, ip; intraperitoneal, at time of maximum effect; 50% of activity vs vehicle only; read-out: MR test ED50, I = Acc. Rotarod. As for the experimental part:
as §1
At 24 hours before testing, the mice to be tested were preliminarily trained for 5 minutes on a rod rotating at the rate of 6 revolutions per a minute. The pharmacological effect on muscle relaxation of the test compounds were evaluated by observing the mice on a rod for 5 minutes, where the rod was accelerated from 4 to 40 revolutions per a minute during the test time. The endurance time that each mouse endures on the acceleratedly rotated rod without falling off from the rod was recorded. As test time for evaluation, a maximum of 5 minutes was applied. […] This experimentation was conducted according to the method described in the reference, ‘Monville et al. (2006) Comparison of incremental and accelerating protocol of the rotarod test for the assessment of motor deficits in the 6-OHDA model. J. Neurosci. Meth. 158: 219-223’.
as §2

The test system of assay [3] is male mice (ICR). Kind of assay: Muscle relaxation: wire hang. Format: in vivo. Particulars: intraperitoneal; for ED50: Mus musculus, at time of maximum effect, 50% of activity vs vehicle only, read-out: MR test ED50, IV = Wire hang; for IV = Wire hang, effect (%) compared to control treated with vehicle only: concentration administered 100 mg/kg. As for the experimental part: as §1
This experimentation was conducted using a metal wire of 30 cm in length, which was suspended between two pillars at a height of about 40 cm from the bottom covered with a soft pad. […] Each mouse was made to grip the wire using two forelimbs, and the elapse time before the mouse fell off from the wire to the pad on the bottom was recorded in seconds. Each mouse was given 5 opportunities for this test at an interval of 2 minutes period. The highest 3 records among the test opportunities were selected and the mean value was used as the test result. This experimentation was conducted according to the method described in the reference, ‘Jacqueline N. Crawley (1999) Behavioral phenotyping of transgenic and knockout mice: experimental design and evaluation of general health, sensory functions, motor abilities, and specific behavioral tests. Brain Res. 835: 18-26’.
as §2

Assay [4] deals with male mice (ICR). Kind of assay: Muscle relaxation: residence time on rotarod rotating at fixed speed (15 r.p.m.). It counts as in vivo. Particulars: Mus musculus, ip, read-out: MR test ED50, II = Fixed 15 r.p.m. Rotarod.
Where [5] appears, read: intraperitoneal, at time of maximum effect, 50% of activity vs vehicle only.

Each structure is given as a SMILES string. Marks after values point to notes of the source that are not given here.

As for `CC(C)[C@H](OC(N)=O)[C@@H](O)c1ccccc1Cl` [Compound 9, 1-(2-chlorophenyl)-(S)-1-hydroxy-3-methyl-butyl-(S)-2-carbamate], the ED50 in the assay on male mice (ICR) [1] came to 104 mg/kg.
Still for that read-out and setting: then `CC[C@H](OC(N)=O)[C@@H](O)c1ccccc1Cl` [Compound 6, 1-(2-chlorophenyl)-(S)-1-hydroxybutyl-(S)-2-carbamate], with 70.7 mg/kg.
Turning to `C[C@H](OC(N)=O)[C@H](O)c1ccccc1Cl` [Compound 5, 1-(2-chlorophenyl)-(R)-1-hydroxypropyl-(S)-2-carbamate], the ED50 turned out to be 84.1 mg/kg with male ICR mice; 95 mg/kg with male mice (ICR) [1]; 66.9 mg/kg with male mice (ICR) [2]; 52.5 mg/kg in the assay on male mice (ICR) [3]; 65.5 mg/kg in the assay with male mice (ICR) [4] (setting [5]).
As to `CC(OC(=O)NC1CC1)C(O)c1ccccc1Cl` (racemic) [Compound 32, 1-(2-chlorophenyl)-1-hydroxypropyl-2-N-cyclopropylcarbamate], the responders at 200 mg/kg with male ICR mice is 100%. Moreover, the results for the ED50 in the assay on male mice (ICR) [1] and in the assay on male mice (ICR) [3] were 45.2 mg/kg and 36.6 mg/kg, respectively.
Take `CC[C@H](OC(N)=O)[C@@H](O)c1ccccc1I` [Compound 67, 1-(2-iodophenyl)-(S)-1-hydroxybutyl-(S)-2-carbamate]: the ED50 in the assay on male mice (ICR) [1] is 69.1 mg/kg; in the assay on male mice (ICR) [3] it was 26.2 mg/kg; in the assay with male mice (ICR) [4] it was 30.2 mg/kg.
Turning to `CCCNC(=O)O[C@H](C)[C@H](O)c1ccccc1Cl` [Compound 23, 1-(2-chlorophenyl)-(R)-1-hydroxypropyl-(R)-2-N-propylcarbamate], the responders at 200 mg/kg in the assay with male ICR mice worked out at 25%. The ED50 in the assay with male mice (ICR) [1] was found to be 73.8 mg/kg; with male mice (ICR) [3] it was 46 mg/kg.
As for `C[C@@H](OC(N)=O)[C@@H](O)c1ccccc1Cl` [Compound 4, 1-(2-chlorophenyl)-(S)-1-hydroxypropyl-(R)-2-carbamate], the ED50 in the assay with male ICR mice amounted to 82.4 mg/kg; in the assay on male mice (ICR) [1], 124 mg/kg; in the assay on male mice (ICR) [2], 69.3 mg/kg; with male mice (ICR) [3] it was 40 mg/kg; in the assay with male mice (ICR) [4] (setting [5]), 65 mg/kg.
The like results for `CC(OC(N)=O)C(O)c1ccccc1Cl` (racemic) [Compound 3, 1-(2-chlorophenyl)-1-hydroxypropyl-2-carbamate] were, in that order, 31.4 mg/kg, 72.6 mg/kg, 57.1 mg/kg, 34 mg/kg and 47.7 mg/kg.
For `C[C@H](OC(=O)NC1CCCCC1)[C@@H](O)c1ccccc1Cl` [Compound 19, 1-(2-chlorophenyl)-(S)-1-hydroxypropyl-(R)-2-N-cyclohexyl carbamate], the ED50 in the assay on male mice (ICR) [1] came to 110 mg/kg; with male mice (ICR) [2] it was 95.3 mg/kg; in the assay with male mice (ICR) [3], 28.5 mg/kg.
Take `C[C@H](OC(N)=O)[C@@H](O)c1ccccc1I` [Compound 65, 1-(2-iodophenyl)-(S)-1-hydroxypropyl-(S)-2-carbamate]: the ED50 in the assay on male mice (ICR) [1] was 42.9 mg/kg; with male mice (ICR) [3], 23.4 mg/kg; with male mice (ICR) [4], 28 mg/kg.
For the molecule `C[C@@H](OC(=O)NC1CCCCC1)[C@H](O)c1ccccc1Cl` [Compound 26, 1-(2-chlorophenyl)-(R)-1-hydroxypropyl-(R)-2-N-cyclohexyl carbamate], in the assay with male mice (ICR) [3], the ED50 came to 63.8 mg/kg.
In the case of `CCCNC(=O)O[C@@H](C)[C@@H](O)c1ccccc1Cl` [Compound 16, 1-(2-chlorophenyl)-(S)-1-hydroxypropyl-(S)-2-N-propylcarbamate], in the assay with male ICR mice, the responders at 200 mg/kg amounted to 25%. The ED50 in the assay on male mice (ICR) [1] came to 67.8 mg/kg; in the assay with male mice (ICR) [2], 48.7 mg/kg; with male mice (ICR) [3], 16.1 mg/kg; in the assay on male mice (ICR) [4] (setting [5]), 61.6 mg/kg.
The like results for `C[C@H](OC(=O)NC1CC1)[C@@H](O)c1ccccc1Cl` [Compound 18, 1-(2-chlorophenyl)-(S)-1-hydroxypropyl-(R)-2-N-cyclopropylcarbamate] were, in that order, 100%, 87.4 mg/kg, 59.2 mg/kg, 29.5 mg/kg and 61.2 mg/kg.
For `CC(C)NC(=O)OC(C)C(O)c1ccccc1Cl` (racemic) [Compound 31, 1-(2-chlorophenyl)-1-hydroxypropyl-2-N-isopropylcarbamate], the responders at 200 mg/kg in the assay with male ICR mice turned out to be 25%. Also, the ED50 with male mice (ICR) [1] is 50.4 mg/kg; in the assay on male mice (ICR) [3] it was 52.1 mg/kg.
`CC(C)NC(=O)O[C@@H](C)[C@@H](O)c1ccccc1Cl` [Compound 17, 1-(2-chlorophenyl)-(S)-1-hydroxypropyl-(R)-2-N-isopropylcarbamate]: the ED50 amounted to 91.5 mg/kg in the assay on male mice (ICR) [1], 73.1 mg/kg in the assay with male mice (ICR) [2], 41.4 mg/kg with male mice (ICR) [3] and 66.4 mg/kg in the assay with male mice (ICR) [4] (setting [5]).
Take `CC(OC(=O)NC1CCCCC1)C(O)c1ccccc1Cl` (racemic) [Compound 33, 1-(2-chlorophenyl)-1-hydroxypropyl-2-N-cyclohexylcarbamate]: the ED50 in the assay with male mice (ICR) [3] is 74.6 mg/kg.
As for `C[C@H](OC(N)=O)[C@@H](O)c1ccccc1F` [Compound 63, 1-(2-fluorophenyl)-(S)-1-hydroxypropyl-(S)-2-carbamate], in the assay on male mice (ICR) [1], the ED50 turned out to be 118 mg/kg. Further, the “IV = Wire hang, effect (%) compared to control treated with vehicle only” value in the assay with male mice (ICR) [3] was 100^a (84.2%).
For `C[C@@H](OC(N)=O)[C@H](O)c1ccccc1F` [Compound 64, 1-(2-fluorophenyl)-(R)-1-hydroxypropyl-(R)-2-carbamate], the “III = Grip strength, effect (%) compared to control treated with vehicle only” value in the assay with male mice (ICR) [1] (concentration administered 120 mg/kg) was 120^a (35.4%). Further, the “IV = Wire hang, effect (%) compared to control treated with vehicle only” value in the assay on male mice (ICR) [3] is reported as 100^a (30.8%).
As to `CC(C)NC(=O)O[C@H](C)[C@H](O)c1ccccc1Cl` [Compound 24, 1-(2-chlorophenyl)-(R)-1-hydroxypropyl-(R)-2-N-isopropylcarbamate], the ED50 turned out to be 48.8 mg/kg with male mice (ICR) [1], 38.6 mg/kg in the assay with male mice (ICR) [2], 17.8 mg/kg in the assay on male mice (ICR) [3] and 44.3 mg/kg in the assay with male mice (ICR) [4] (setting [5]).
In the case of `CNC(=O)O[C@H](C)[C@H](O)c1ccccc1Cl` [Compound 22, 1-(2-chlorophenyl)-(R)-1-hydroxypropyl-(R)-2-N-methylcarbamate], the ED50 with male mice (ICR) [1] is 28.3 mg/kg; in the assay with male mice (ICR) [2], 25.7 mg/kg; with male mice (ICR) [3], 22.4 mg/kg; in the assay on male mice (ICR) [4] (setting [5]) it was 25.1 mg/kg.
With `C[C@@H](OC(N)=O)[C@H](O)c1ccc(Cl)cc1Cl` [Compound 45, 1-(2,4-dichlorophenyl)-(R)-1-hydroxypropyl-(R)-2-carbamate], in the assay with male ICR mice, the responders at 200 mg/kg worked out at 0%.
Turning to `C[C@@H](OC(N)=O)[C@H](O)c1ccccc1I` [Compound 66, 1-(2-iodophenyl)-(R)-1-hydroxypropyl-(R)-2-carbamate], the values for the ED50 with male mice (ICR) [1], in the assay with male mice (ICR) [3] and with male mice (ICR) [4] were 46 mg/kg, 76.3 mg/kg and 67.9 mg/kg, respectively.
As for `CCC(OC(N)=O)C(O)c1ccccc1Cl` (racemic) [Compound 8, 1-(2-chlorophenyl)-1-hydroxybutyl-2-carbamate], the ED50 with male mice (ICR) [1] amounted to 69.5 mg/kg; in the assay on male mice (ICR) [2], 50.6 mg/kg.
Regarding `CCCNC(=O)OC(C)C(O)c1ccccc1Cl` (racemic) [Compound 30, 1-(2-chlorophenyl)-1-hydroxypropyl-2-N-propylcarbamate], the responders at 200 mg/kg with male ICR mice came to 25%. Also, the 50% effective dose (ED50) with male mice (ICR) [1] came out at 65.4 mg/kg; in the assay with male mice (ICR) [3], 31.7 mg/kg.
Regarding `CC(C)C(OC(N)=O)C(O)c1ccccc1Cl` (racemic) [Compound 11, 1-(2-chlorophenyl)-1-hydroxy-3-methyl-butyl-2-carbamate], the figures for the ED50 with male mice (ICR) [1] and in the assay on male mice (ICR) [2] were 126 mg/kg and 102 mg/kg, respectively.
With `CC[C@@H](OC(N)=O)[C@H](O)c1ccccc1Cl` [Compound 7, 1-(2-chlorophenyl)-(R)-1-hydroxybtyl-(R)-2-carbamate], the ED50 in the assay with male mice (ICR) [1] turned out to be 248 mg/kg.
